Measured values: US10526580B2, “Differentiated cell population of endothelial cells derived from human pluripotent stem cells, composition, system, kit and uses thereof” (BIOCANT-ASSOCIAÇÃO DE TRANSFERÊNCIA DE TECNOLOGIA, priority 2012, dated 2020)
Counter-ions that a name gives are not always drawn. Like-named read-outs stand apart in the source and are kept apart here.

Key:
[1] = system: hESC-derived ECs versus ACL cells; assay: High-throughput screening of LOPAC library, PrestoBlue cell viability, hESC-derived ECs versus ACL cells; type: cell-based, human
Protocol: (§1) High-throughput screening (HTS). HUAECS (Lonza) and hESC-derived ECs were cultured in EGM-2 medium while human anterior cruciate ligament cells (ACL cells) were cultured in Dulbecco's modified Eagle's medium (DMEM; PAA) supplemented with 10% FBS, 0.2 mM ascorbic acid 2-phosphate magnesium salt (Sigma Aldrich), […] streptomycin and 100 U/mL penicillin (Life Technologies). ACL cells were isolated from patients that have signed an informed consent form, in compliance with the Dutch legislation. The ethical committee of Medisch Spectrum Twente Hospital approved the collection.
(§2) The LOPAC library (Sigma-Aldrich) was used to screen embryonic endothelial-specific cytotoxic compounds. The compounds were solubilized in DMSO. The final compound concentration used in the screen was 4.5 μM in a final volume of 200 μL per well (96-well plate). HUAECs, hESC-derived EC and ACL cells were seeded at 16,000 cells/well (HUAECs and hESC-derived ECs) and 5,000 cells/well (ACL cells) and allowed to reach near confluence (approximately two days). After two days, medium was exchanged and test compounds and controls were added to the 96-well plates (all wells contained 0.25% (v/v) DMSO). After 4 days of incubation, cell viability was assessed using a PrestoBlue (Invitrogen) assay. This assay is based on a resazurin-based solution that indicates the reducing power of living cells and therefore measures indirectly their number. For each measurement, cell medium was removed and the PrestoBlue solution (10%) was added for 3 h at 37° C. upon which the absorbance was measured at 560-590 nm.
(§3) Disruption of vascular development has been directly correlated with prenatal loss, malformations and neurodevelopmental problems^41-44. […] The library was screened at a single dosage of 4.5 μM in a volume of 200 μL per well of EGM-2 medium, containing 0.25% DMSO (v/v). […] Six compounds (danazol, chlorpromazine hydrochloride, ellipticine, 3′,4′-dichlorobenzamil, fluphenazine dihydrochloride and 7-cyclopentyl-5-(4-phenoxy)phenyl-7H-pyrrolo[2,3-d]pyrimidin-4-ylamine) affected cell viability in both cells by a difference of 20% (FIG. 4B). The six compounds belong to different classes: cell cycle, ion pumps, dopamine pathway, phosphorylation and hormone signaling. The compounds selected from the primary screen were then tested against hESC-derived ECs and HUAECs at eight different concentrations to obtain a dose-response curve (FIG. 4C and FIG. 14).

[2] = system: hESC-derived ECs versus HUAECs; assay: High-throughput screening of LOPAC library, PrestoBlue cell viability, hESC-derived ECs versus HUAECs; type: cell-based, human; conditions: LOPAC screen, 4.5 μM, 4 days, PrestoBlue assay
Protocol: as §1, §2, §3

[3] = LOPAC screen, 4.5 μM, 4 days of incubation, PrestoBlue assay

Compound	Differences (%) in cell viability (hESC-Derived ECs versus ACL cells) [1, 3] [%]	difference in cell viability between hESC-derived ECs and HUAECs [2] [%]	Differences (%) in cell viability (hESC-Derived ECs versus ACL cells) [1] [%]
N/C(=N\C(=O)c1nc(Cl)c(N)nc1N)NCc1ccc(Cl)c(Cl)c1 [3′,4′-Dichlorobenzamil]	54.2	20	
CN(C)CCCN1c2ccccc2Sc2ccc(Cl)cc21 [Chlorpromazine hydrochloride]	57.2	20	
C#C[C@]1(O)CC[C@H]2[C@@H]3CCC4=Cc5oncc5C[C@]4(C)[C@H]3CC[C@@]21C [Danazol]	52.7	20	
Cc1c2ccncc2c(C)c2c1[nH]c1ccccc12 [Ellipticine]	58.5	20	
OCCN1CCN(CCCN2c3ccccc3Sc3ccc(C(F)(F)F)cc32)CC1 [Fluphenazine dihydrochloride]	51.4	20	
COc1cc([C@@H]2c3cc4c(cc3[C@H](O)[C@H]3COC(=O)[C@H]23)OCO4)cc(OC)c1OC [Podophyllotoxin]	75.7		
CCC(=O)c1ccc2c(c1)N(CCCN(C)C)c1ccccc1S2 [Propionylpromazine hydrochloride]	50.3		
CCN(CC)C(=O)N[C@H]1C[C@@H]2c3cccc4[nH]cc(c34)C[C@H]2N(C)C1 [R(+)-Terguride]	57.1		
Cc1nc2n(c(=O)c1CCN1CCC(c3noc4cc(F)ccc34)CC1)CCCC2 [Risperidone]	56.9		
CC(=O)c1c(O)c(C)c(O)c(Cc2c(O)c3c(c(C(=O)/C=C/c4ccccc4)c2O)OC(C)(C)C=C3)c1O [Rottlerin]	61.6		
CCCN1CCC[C@@H](c2cccc(O)c2)C1.Cl [S(−)-3PPP hydrochloride]	51.8		
N[C@@H](Cn1cc(I)c(=O)[nH]c1=O)C(=O)O [S-5-lodowillardiine]	52.8		
[N-]=[N+]=Nc1ccc(C(=O)CSC[C@H](NC(=O)CC[C@H](N)C(=O)O)C(=O)NCC(=O)O)cc1 [S-(p-Azidophenacyl)glutathione]	61.3		
Cc1nc(-c2ccc(-c3ccc(C(=O)N4CCc5cc6c(cc54)C4(CCN(C)CC4)CO6)cc3)c(C)c2)no1 [SB 224289 hydrochloride]	96.7		
COc1cc2c(cc1C(F)(F)F)N(C(=O)Nc1cc(F)cc(-c3cccnc3)c1)CC2 [SB 228357]	62.7		
Br.CN=c1nc(-c2ccccc2)n(-c2ccccc2)s1 [SCH-202676 hydrobromide]	53.2		
COc1ccc(CCCOC(Cn2ccnc2)c2ccc(OC)cc2)cc1 (centres unmarked) [SKF 96365]	69.8		
O=C(O)c1ccccc1Nc1cccc(OCc2ccc3ccccc3n2)c1 [SR 2640]	53.0		
CN(C)S(=O)(=O)c1ccc2c(c1)/C(=C/c1cc3c([nH]1)CCCC3)C(=O)N2 [SU 6656]	61.5		
C[n+]1cc2c3c(ccc2c2ccc4cc5c(cc4c21)OCO5)OCO3 [Sanguinarine chloride]	96.4		
C/C(=C\c1ccc(C(=O)O)cc1)c1ccc2c(c1)C(C)(C)CCC2(C)C [TTNPB]	92.6		
CC/C(=C(\c1ccccc1)c1ccc(OCCN(C)C)cc1)c1ccccc1 [Tamoxifen citrate]	98.3		
CC(=O)O[C@H]1C(=O)[C@@]2(C)[C@H]([C@H](OC(=O)c3ccccc3)[C@]3(O)C[C@H](OC(=O)[C@H](O)[C@@H](NC(=O)c4ccccc4)c4ccccc4)C(C)=C1C3(C)C)[C@]1(OC(C)=O)CO[C@@H]1C[C@@H]2O [Taxol]	78.1		
Cc1scc2c1N(C(=O)CN1CCN(C)CC1)c1ccccc1NC2=O [Telenzepine dihydrochloride]	68.9		

Compound	Differences (%) in cell viability (hESC-Derived ECs versus ACL cells) [1, 3] [%]	difference in cell viability between hESC-derived ECs and HUAECs [2] [%]	Differences (%) in cell viability (hESC-Derived ECs versus ACL cells) [1] [%]
CC(C)(C)c1ccc(C(O)CCCN2CCC(C(O)(c3ccccc3)c3ccccc3)CC2)cc1 (centres unmarked) [Terfenadine]	98.3		
C/C=C(/C)C(=O)O[C@H]1C(C)=C2[C@H]([C@@H]1OC(=O)CCCCCCC)[C@@](C)(OC(C)=O)C[C@H](OC(=O)CCC)[C@@]1(O)[C@H]2OC(=O)[C@@]1(C)O [Thapsigargin]	94.8		
CSc1ccc2c(c1)N(CCC1CCCCN1C)c1ccccc1S2 (centres unmarked) [Thioridazine hydrochloride]	51.6		
CNCC[C@@H](Oc1ccccc1C)c1ccccc1 [Tomoxetine]	68.7		
COc1cc2c(cc1OC)-c1c/c(=N\c3c(C)cc(C)cc3C)n(C)c(=O)n1CC2 [Trequinsin hydrochloride]	50.7		
CN1CCN(CCCN2c3ccccc3Sc3ccc(C(F)(F)F)cc32)CC1 [Trifluoperazine dihydrochloride]	54.0		
CN(C)CCCN1c2ccccc2Sc2ccc(C(F)(F)F)cc21 [Triflupromazine hydrochloride]	53.0		
CC(C)(C)c1cc(C=C(C#N)C#N)cc(C(C)(C)C)c1O [Tyrphostin A9]	69.5		
N#C/C(=C\c1ccc(O)c(O)c1)C(=O)NCc1ccccc1 [Tyrphostin AG 490]	56.3		
C[C@@H](NC(=O)/C(C#N)=C/c1ccc(O)c(O)c1)c1ccccc1 [Tyrphostin AG 527]	53.4		
N#C/C(=C\c1ccc(O)c(O)c1)C(=O)NCCCNC(=O)/C(C#N)=C/c1ccc(O)c(O)c1 [Tyrphostin AG 537]	52.3		
CC(C)(C)c1cc(/C=C(\C#N)C(N)=S)cc(C(C)(C)C)c1O [Tyrphostin AG 879]	54.4		
N#CC(=C(/N)Sc1ccccc1N)/C(C#N)=C(\N)Sc1ccccc1N [U0126]			68.9
C[C@]12C=CC(=O)C=C1CC[C@@H]1C2=CC[C@]2(C)[C@@H](C(=O)CN3CCN(c4cc(N5CCCC5)nc(N5CCCC5)n4)CC3)CC[C@@H]12.O=C(O)/C=C\C(=O)O [U-74389G maleate]	51.6		
Cc1c(C)c2c(c(C)c1O)CCC(C)(CN1CCN(c3cc(N4CCCC4)nc(N4CCCC4)n3)CC1)O2.Cl.Cl (centres unmarked) [U-83836 dihydrochloride]	51.3		
CC[C@]1(O)C[C@H]2CN(CCc3c([nH]c4ccccc34)[C@@](C(=O)OC)(c3cc4c(cc3OC)N(C=O)[C@H]3[C@@](O)(C(=O)OC)[C@H](OC(C)=O)[C@]5(CC)C=CCN6CC[C@]43[C@@H]65)C2)C1 [Vincristine sulfate]	89.2		
COC[C@H]1OC(=O)c2coc3c2[C@@]1(C)C1=C(C3=O)[C@@H]2CCC(=O)[C@@]2(C)C[C@H]1OC(C)=O [Wortmannin from Penicillium funiculosum, Wortmannin]	57.9		
CC(Oc1ccc(Oc2cnc3ccc(Cl)cc3n2)cc1)C(=O)O (centres unmarked) [XK469]	75.9		
COc1cc(-c2ccc(=O)[nH]n2)ccc1OC(F)F [Zardaverine]	84.0		
Cl.Cl.OCCN1CCN(CC/C=C2/c3ccccc3Sc3ccc(C(F)(F)F)cc32)CC1 [cis-(Z)-Flupenthixol dihydrochloride]	69.6		
(±)-Butaclamol hydrochloride	53.6		
Ivermectin	78.7		
R-(−)-Fluoxetine hydrochloride	54.5		
Vinblastine sulfate salt	92.8		
